Measured values as given in PubChem BioAssay AID248 (DTP/NCI, 2004).
“And” between values parts separate entries of the source, which are not always exact repeats. Identical values can stand only once. Toxic doses and inconclusive results are not listed. Square brackets hold non-standard residues; d marks the D form. Peptide text beside a SMILES is read from it. * marks the point of attachment. ξ: configuration not given here. Cbz = O=C(OCc1ccccc1)*; ξL = CC(C)CC(N)C(=O)O

Tested on: L1210 leukemia ip in BDF1 mice, survival T/C
Assay: NCI In Vivo Anticancer Drug Screen. Data for tumor model L1210 Leukemia (intraperitoneal) in B6D2F1 (BDF1) mice
Conditions: endpoint: mean survival time, higher = longer survival
How it was run: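 Transplanted-tumor mice were given test agent; controls received vehicle only. Survival readings from the two groups were divided (treated over control).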

[1] = dose: 100.0 mg/kg/injection, schedule: Q01DX001 (ip), vehicle: saline
[2] = dose: 200.0 mg/kg/injection, schedule: Q01DX001 (ip), vehicle: saline
[3] = dose: 400.0 mg/kg/injection, schedule: Q01DX001 (ip), vehicle: saline
[4] = dose: 100.0 mg/kg/injection, schedule: Q04DX003 (ip), vehicle: saline with Tween-80
[5] = dose: 200.0 mg/kg/injection, schedule: Q04DX003 (ip), vehicle: saline with Tween-80
[6] = dose: 100.0 mg/kg/injection, schedule: Q01DX001 (ip), vehicle: saline with Tween-80
[7] = dose: 200.0 mg/kg/injection, schedule: Q01DX001 (ip), vehicle: saline with Tween-80
[8] = dose: 6.25 mg/kg/injection, schedule: Q01DX009 (ip), vehicle: saline
[9] = dose: 25.0 mg/kg/injection, schedule: Q01DX009 (ip), vehicle: saline
[10] = dose: 25.0 mg/kg/injection, schedule: Q04DX003 (ip), vehicle: saline
[11] = dose: 50.0 mg/kg/injection, schedule: Q01DX009 (ip), vehicle: saline
[12] = dose: 50.0 mg/kg/injection, schedule: Q04DX003 (ip), vehicle: saline

`Oc1ccccc1N=Cc1ccc(C=Nc2ccccc2O)cc1` was tested, and the T/C (dose: 100.0 mg/kg/injection, schedule: Q01DX009 (ip), vehicle: gum acacia) was 101 % of control, the T/C (dose: 100.0 mg/kg/injection, schedule: Q04DX003 (ip), vehicle: gum acacia) was 100 % of control and the T/C (dose: 200.0 mg/kg/injection, schedule: Q01DX009 (ip), vehicle: gum acacia) was 97 % of control. The T/C (dose: 200.0 mg/kg/injection, schedule: Q04DX003 (ip), vehicle: gum acacia) was 98 % of control, the T/C (dose: 400.0 mg/kg/injection, schedule: Q01DX009 (ip), vehicle: gum acacia) was 107 % of control and the T/C (dose: 400.0 mg/kg/injection, schedule: Q04DX003 (ip), vehicle: gum acacia) was 94 % of control.
With `CC(CN1c2ccccc2Sc2ccccc21)[N+](C)(C)C` (stereo not given) the T/C [1] was 88 % of control.
In the case of `CCOC(=O)OC(=O)CNC(=O)CN1C(=O)c2ccccc2C1=O`, the T/C [1] is reported as 100 % of control, the T/C [2] is reported as 94 % of control and the T/C [3] is reported as 91 % of control.
With `c1cc2c3c(c1)/C(=N\N=C1/CCN4CCCc5cccc1c54)CCN3CCC2` the T/C (dose: 50.0 mg/kg/injection, schedule: Q01DX009 (ip), vehicle: saline with Tween-80) was 91 % of control, the T/C (dose: 100.0 mg/kg/injection, schedule: Q01DX009 (ip), vehicle: saline with Tween-80) was 89 % of control and the T/C [4] was 92 % of control. The T/C (dose: 200.0 mg/kg/injection, schedule: Q01DX009 (ip), vehicle: saline with Tween-80) was 92 % of control and the T/C [5] was 89 % of control.
`CC(C)=CCC/C(C)=C/Cn1ccccc1=O` was tested, and the T/C [6] was 98 % of control and the T/C [7] was 98 % of control.
For `COC(=O)C(CC(C)C)NC(=O)CNC(=O)CNC(=O)OCc1ccccc1` (stereo not drawn) (Cbz-Gly-Gly-[ξL]-OMe), the T/C (dose: 100.0 mg/kg/injection, schedule: Q04DX003 (ip), vehicle: Klucel (hydroxypropylcellulose) (HPC)) was 105 % of control, the T/C (dose: 200.0 mg/kg/injection, schedule: Q04DX003 (ip), vehicle: Klucel (hydroxypropylcellulose) (HPC)) was 96 % of control and the T/C (dose: 400.0 mg/kg/injection, schedule: Q04DX003 (ip), vehicle: Klucel (hydroxypropylcellulose) (HPC)) was 96 % of control.
For `Clc1ccc(C#Cc2ccc(Cl)cc2)cc1`, the T/C (dose: 6.25 mg/kg/injection, schedule: Q01DX009 (ip), vehicle: saline with Tween-80) was 103 % of control and the T/C (dose: 12.5 mg/kg/injection, schedule: Q01DX009 (ip), vehicle: saline with Tween-80) was 103 % of control.
`CC(CN1CC(=O)NC(=O)C1)N1CC(=O)NC(=O)C1.[Cl-].[Pt+4]` (stereo not given) was tested, and the T/C [8] was 110 % of control, the T/C [9] was 114 % of control and 120 % of control and the T/C [10] was 108 % of control. The T/C [11] was 120 % of control, the T/C [12] was 109 % of control and 120 % of control and the T/C (dose: 100.0 mg/kg/injection, schedule: Q01DX009 (ip), vehicle: saline) was 114 % of control. For the same compound, the T/C (dose: 100.0 mg/kg/injection, schedule: Q04DX003 (ip), vehicle: saline) was 153 % of control and the T/C (dose: 150.0 mg/kg/injection, schedule: Q04DX003 (ip), vehicle: saline) was 116 % of control.
With `CCCCCCCCN(N)C12CC3CC(CC(C3)C1)C2` the T/C [8] was 106 % of control, the T/C (dose: 12.5 mg/kg/injection, schedule: Q01DX009 (ip), vehicle: saline) was 107 % of control and the T/C (dose: 12.5 mg/kg/injection, schedule: Q04DX003 (ip), vehicle: saline) was 113 % of control. For the same compound, the T/C [9] was 106 % of control, the T/C [10] was 113 % of control and the T/C [11] was 87 % of control. For the same compound, the T/C [12] was 113 % of control.
For `CC(C)(C)C1CCC2SC(C)(C(C)(C)C)CC(C(C)(C)C)C2C1` (stereo not given), the T/C [6] was 104 % of control, the T/C [7] was 98 % of control and the T/C (dose: 400.0 mg/kg/injection, schedule: Q01DX001 (ip), vehicle: saline with Tween-80) was 91 % of control.
In the case of `COc1cc(/C=N/OCc2cc3c(cc2Cl)OCO3)cc(OC)c1OC`, the T/C [4] is reported as 99 % of control, the T/C [5] is reported as 94 % of control and the T/C (dose: 400.0 mg/kg/injection, schedule: Q04DX003 (ip), vehicle: saline with Tween-80) is reported as 96 % of control.
In the case of `CN(C)c1ccc(/C=C\C=N\NC(=O)CCCC(=O)N/N=C/C=C/c2ccc(N(C)C)cc2)cc1`, the T/C (dose: 50.0 mg/kg/injection, schedule: Q01DX001 (ip), vehicle: saline) is reported as 96 % of control, the T/C [1] is reported as 96 % of control and the T/C [2] is reported as 96 % of control. For the same compound, the T/C [3] was 90 % of control.
In the case of `S=C(NCCN1CCCC1)Nc1ccccc1`, the T/C (dose: 25.0 mg/kg/injection, schedule: Q01DX009 (ip), vehicle: Klucel (hydroxypropylcellulose) (HPC)) is reported as 119 % of control, the T/C (dose: 50.0 mg/kg/injection, schedule: Q01DX009 (ip), vehicle: Klucel (hydroxypropylcellulose) (HPC)) is reported as 104 % of control and the T/C (dose: 100.0 mg/kg/injection, schedule: Q01DX009 (ip), vehicle: Klucel (hydroxypropylcellulose) (HPC)) is reported as 97 % of control and 114 % of control.
